Molecules are shown by their SMILES.

Holding throughout (format): biochemical
Assay [1] concerns the target Pim-2 (Homo sapiens (Human), UniProt Q9P1W9). In words: Pim-2 kinase assay (TR-FRET, Fluorescein-labeled CREBtide peptide substrate). As to conditions: 1 mM ATP; read-out: Pim2 IC50. The gist of the method: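 Human Pim-2 (1 nM) phosphorylated 0.05 μM fluorescein-CREBtide with 1 mM ATP for 2 h at 25 °C in Tris buffer pH 7.5 containing MgCl2, DTT, BSA and Tween-20. Reactions were stopped with EDTA and Tb-anti-pSer133 antibody was added, and TR-FRET was read after 30 min.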

The target in assay [2] is Pim-1 (Homo sapiens (Human), UniProt P11309). In words: Pim-1 kinase assay (AlphaScreen, Biotin-labeled BAD peptide substrate). The settings on record: 1 mM ATP; read-out: Pim1 IC50. An outline of the steps: (§1)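 Kinase reactions ran 1 h at 25° C, pH 7.5, with 0.05 μM biotin-BAD peptide, 1 mM ATP, and 2.5 μM Pim-1 or 1.25 μM Pim-3. EDTA stop buffer carried anti-phospho-Bad (Ser112) antibody plus streptavidin donor and Protein-A acceptor beads. AlphaScreen signal was read after 1 h in the dark.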

Assay [3] has as its target Pim-3 (Homo sapiens (Human), UniProt Q86V86). The assay is described as follows: Pim-3 kinase assay (AlphaScreen, Biotin-labeled BAD peptide substrate). The settings on record: 1 mM ATP; read-out: Pim3 IC50. An outline of the steps: as §1

Chain of Pim-1 (P11309 whole entry): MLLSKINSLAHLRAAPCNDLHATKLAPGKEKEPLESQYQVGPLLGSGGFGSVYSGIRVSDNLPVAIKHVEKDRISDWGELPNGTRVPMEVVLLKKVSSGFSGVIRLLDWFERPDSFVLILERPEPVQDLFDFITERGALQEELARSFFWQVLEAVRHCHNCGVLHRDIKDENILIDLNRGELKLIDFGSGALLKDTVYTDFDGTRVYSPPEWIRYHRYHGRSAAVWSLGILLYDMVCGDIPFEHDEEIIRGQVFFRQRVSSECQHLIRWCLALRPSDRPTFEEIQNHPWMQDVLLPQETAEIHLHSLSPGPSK
Chain of Pim-2 (Q9P1W9 whole entry): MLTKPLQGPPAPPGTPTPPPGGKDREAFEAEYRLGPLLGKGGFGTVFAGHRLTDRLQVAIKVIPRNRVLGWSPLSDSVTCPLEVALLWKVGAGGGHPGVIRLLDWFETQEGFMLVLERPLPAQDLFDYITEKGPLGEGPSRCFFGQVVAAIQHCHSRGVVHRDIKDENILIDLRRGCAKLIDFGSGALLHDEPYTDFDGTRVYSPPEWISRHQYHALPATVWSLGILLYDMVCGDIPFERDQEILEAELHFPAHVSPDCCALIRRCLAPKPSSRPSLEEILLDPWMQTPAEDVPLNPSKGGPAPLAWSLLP

With `CC(C)c1coc2ccc(C(=O)Nc3cnccc3N3C[C@@H](N)[C@H](O)[C@@H](C)C3)nc12` [Example 10, N-(4-((3R,4R,5S)-3-Amino-4-hydroxy-5-methylpiperidin-1-yl)pyridin-3-yl)-3-isopropylfuro[3,2-b]pyridine-5-carboxamide], the half-maximal inhibitory concentration (IC50) in assay [1] was not above 100 nM; in assay [2], not above 10 nM; in assay [3], not above 10 nM.

For the compound `CCc1csc2ccc(C(=O)Nc3cnccc3N3CCC[C@H](N)C3)nc12` [Example 66, N-{4-[(3S)-3-Aminopiperidin-1-yl]pyridin-3-yl}-3-ethylthieno[3,2-b]pyridine-5-carboxamide], the IC50 in assay [1] was 100 to 1000 nM; in assay [2] it was not above 10 nM; in assay [3], not above 10 nM.

For `C[C@H]1CN(c2ccncc2NC(=O)c2ccc3cc([C@@H]4C[C@@H]4C)oc3n2)C[C@@H](N)[C@@H]1O` (racemic) [Example 73, N-{4-[(3R,4R,5S)-3-Amino-4-hydroxy-5-methylpiperidin-1-yl]pyridin-3-yl}-2-(cis-2-methylcyclopropyl)furo[2,3-b]pyridine-6-carboxamide], the IC50 in assay [1] was not above 100 nM; in assay [2], not above 10 nM; in assay [3], not above 10 nM.

As to `C[C@@H]1C[C@H](N)CN(c2ccncc2NC(=O)c2ccc3scc(C4CC4)c3n2)C1` [Example 65, N-(4-((3S,5R)-3-Amino-5-methylpiperidin-1-yl)pyridin-3-yl)-3-cyclopropylthieno[3,2-b]pyridine-5-carboxamide], the IC50 in assay [1] was not above 100 nM; in assay [2], not above 10 nM; in assay [3] it was not above 10 nM.

Turning to `CCc1cc2nc(C(=O)Nc3cnccc3N3C[C@@H](N)[C@H](O)[C@@H](C)C3)ccc2s1` [Example 85, N-(4-((3R,4R,5S)-3-amino-4-hydroxy-5-methylpiperidin-1-yl)pyridin-3-yl)-2-ethylthieno[3,2-b]pyridine-5-carboxamide], the IC50 in assay [1] is not above 100 nM; in assay [2], not above 10 nM; in assay [3], not above 10 nM.

On to `C[C@H]1CN(c2ccncc2NC(=O)c2ccc3sc(-c4cnn(C)c4)cc3n2)C[C@@H](N)[C@@H]1O` [Example 48, N-(4-((3R,4R,5S)-3-Amino-4-hydroxy-5-methylpiperidin-1-yl)pyridin-3-yl)-2-(1-methyl-1H-pyrazol-4-yl)thieno[3,2-b]pyridine-5-carboxamide], for which the IC50 in assay [1] is not above 100 nM; in assay [2], not above 10 nM; in assay [3] it was not above 10 nM.

For the compound `C[C@H]1CN(c2ccncc2NC(=O)c2ccc3sc(Cc4ccccc4)cc3n2)C[C@@H](N)[C@@H]1O` [Example 42, N-(4-((3R,4R,5S)-3-Amino-4-hydroxy-5-methylpiperidin-1-yl)pyridin-3-yl)-2-benzylthieno[3,2-b]pyridine-5-carboxamide], the half-inhibitory concentration (IC50) in assay [1] is 100 to 1000 nM; in assay [2], not above 10 nM; in assay [3], not above 10 nM.

Turning to `C[C@@H]1C[C@H](N)CN(c2ccncc2NC(=O)c2ccc3cc([C@@H]4C[C@H]4C)oc3n2)C1` (racemic) [Example 76, N-{4-[(3S,5R)-3-Amino-5-methylpiperidin-1-yl]pyridin-3-yl}-2-(trans-2-methylcyclopropyl)furo[2,3-b]pyridine-6-carboxamide], the results for the concentration for half-maximal inhibition (IC50) in assay [1], in assay [2] and in assay [3] were not above 100 nM, not above 10 nM and not above 10 nM, respectively.

On to `Cc1cc2nc(C(=O)Nc3cnccc3N3C[C@@H](N)[C@H](O)[C@@H](C)C3)ccc2s1` [Example 49, N-(4-((3R,4R,5S)-3-Amino-4-hydroxy-5-methylpiperidin-1-yl)pyridin-3-yl)-2-methylthieno[3,2-b]pyridine-5-carboxamide], for which the IC50 in assay [1] was 100 to 1000 nM; in assay [2], not above 10 nM; in assay [3], not above 10 nM.

`N[C@H]1CCCN(c2ccncc2NC(=O)c2ccc3scc(C4CC4)c3n2)C1` [Example 67, (S)-N-(4-(3-Aminopiperidin-1-yl)pyridin-3-yl)-3-cyclopropylthieno[3,2-b]pyridine-5-carboxamide]: the IC50 is 100 to 1000 nM in assay [1], not above 10 nM in assay [2] and not above 10 nM in assay [3].

With `COc1cncc(-c2coc3ccc(C(=O)Nc4cnccc4N4C[C@H](C)C[C@H](N)C4)nc23)c1` [Example 32, N-(4-((3S,5R)-3-Amino-5-methylpiperidin-1-yl)pyridin-3-yl)-3-(5-methoxypyridin-3-yl)furo[3,2-b]pyridine-5-carboxamide], the IC50 was 1000 to 10000 nM in assay [1], not above 10 nM in assay [2] and not above 10 nM in assay [3].

Regarding `C[C@H]1CN(c2ccncc2NC(=O)c2ccc3cc(C4CC4)oc3n2)C[C@@H](N)[C@@H]1O` [Example 69, N-{4-[(3R,4R,5S)-3-Amino-4-hydroxy-5-methylpiperidin-1-yl]pyridin-3-yl}-2-cyclopropylfuro[2,3-b]pyridine-6-carboxamide], the IC50 is not above 100 nM in assay [1], not above 10 nM in assay [2] and not above 10 nM in assay [3].

`C[C@@H]1C[C@H](N)CN(c2ccncc2NC(=O)c2ccc3sc(-c4ccccc4)cc3n2)C1` [Example 58, N-(4-((3S,5R)-3-Amino-5-methylpiperidin-1-yl)pyridin-3-yl)-2-phenylthieno[3,2-b]pyridine-5-carboxamide]: the IC50 was 100 to 1000 nM in assay [1], not above 10 nM in assay [2] and not above 10 nM in assay [3].

On to `C[C@@H]1C[C@H](N)CN(c2ccncc2NC(=O)c2ccc3sc(C4CC4)cc3n2)C1` [Example 59, N-(4-((3S,5R)-3-Amino-5-methylpiperidin-1-yl)pyridin-3-yl)-2-cyclopropylthieno[3,2-b]pyridine-5-carboxamide], for which the IC50 was not above 100 nM in assay [1], not above 10 nM in assay [2] and not above 10 nM in assay [3].

With `COc1ccc(-c2cc3nc(C(=O)Nc4cnccc4N4C[C@H](C)C[C@H](N)C4)ccc3s2)cn1` [Example 55, N-(4-((3S,5R)-3-Amino-5-methylpiperidin-1-yl)pyridin-3-yl)-2-(6-methoxypyridin-3-yl)thieno[3,2-b]pyridine-5-carboxamide], the IC50 in assay [1] was 100 to 1000 nM; in assay [2] it was not above 10 nM; in assay [3] it was not above 10 nM.

`C[C@H]1CN(c2ccncc2NC(=O)c2ccc3occ(C4CCOCC4)c3n2)C[C@@H](N)[C@@H]1O` [Example 17, N-(4-((3R,4R,5S)-3-Amino-4-hydroxy-5-methylpiperidin-1-yl)pyridin-3-yl)-3-(tetrahydro-2H-pyran-4-yl)furo[3,2-b]pyridine-5-carboxamide]: the IC50 in assay [1] is 100 to 1000 nM; in assay [2], not above 10 nM; in assay [3], not above 10 nM.

On to `C[C@H]1CN(c2ccncc2NC(=O)c2ccc3occ(-c4ccccc4F)c3n2)C[C@@H](N)[C@@H]1O` [Example 12, N-(4-((3R,4R,5S)-3-Amino-4-hydroxy-5-methylpiperidin-1-yl)pyridin-3-yl)-3-(2-fluorophenyl)furo[3,2-b]pyridine-5-carboxamide], for which the IC50 in assay [1] is 100 to 1000 nM; in assay [2], not above 10 nM; in assay [3] it was not above 10 nM.

Values taken from patent US9822124B2, “Bicyclic heteroaromatic carboxamide compounds useful as Pim kinase inhibitors” (Incyte Corporation, priority 2014, dated 2017).
